Laboratory results taken from patent US20070117770A1, “Human ribosomal DNA (rDNA) and ribosomal RNA (rRNA) nucleic acids and uses thereof” (Cylene Pharmaceuticals, Inc., priority 2005, published 2007).

Tests used:
rRNA synthesis, HCT-116 = experiment: PCR assay of rRNA synthesis from 45S rDNA (5' ETS probe); type: cell-based; details: various concentrations; two hour or four hour incubation (FIGS. 4A, 4B)
Method: Assays were conducted to determine the effects of compounds on rRNA synthesis from 45S rDNA. In particular, compound A-1 at various concentrations was incubated with cells and tested for an effect on rRNA synthesis after a two hour or four hour incubation with the compound. Synthesized rRNA was quantified by a polymerase chain reaction (PCR) assay. A primer/probe set was designed using Primer Express software and synthesized by Applied Biosystems. The 5′ ETS Probe utilized had the following sequence (@ its 3′ end): 6FAM-TTG ATC CTG CCA GTA GC-MGBNFQ (SEQ ID NO:227). The primer sequences were as follows:
Mix • 1 ug RNA • 2.5 ul 10× Taq Man buffer • 5.5 ul 25 mM MgCl2 • 5 ul of a mix of dNTP (500 uM each) • 1.2 ul random hexamer primer (2.5 uM stock) • 0.5 ul RNase inhibitor (0.4 units/ul) • 0.6 ul Reverse Transcriptase (1.2 units/ul) • bring to 25 ul total volume with water
Mix • 5 ul Reverse Transcriptase reaction product • 12.5 ul 2×PCR mix • 1 uM forward primer • 1 uM reverse primer • 0.5 uM Taq Man probe • 500 nM Rox • Adjust to 25 ul final volume with water
PCR cycles • 95 degrees C. 1 minute • 40 cycles of • 95 degrees C. 15 seconds • 60 degrees C. 1 minute.
Fluorescence of digested label was detected and quantified. […] The effect of other compounds on rRNA synthesis also were assessed in the assay, and provided in the table hereafter are IC50 values of selected compounds pertaining to rRNA synthesis and cMYC RNA synthesis.

other kinases = experiment: Protein kinase inhibition assays (panel, summary); type: biochemical; details: 2.5 μM
Method: Certain compounds were tested for activity in protein kinase inhibition assays. All substrates were dissolved and diluted to working stocks in de-ionized water, apart from histone H1 (10× working stock in 20 mM MOPS pH 7.0), PDKtide (10× working stock in 50 mM Tris pH 7.0) ATF2 (which is typically stored at a 20× working stock in 50 mM Tris pH 7.5, 150 mM NaCl, 0.1 mM EGTA, 0.03% Brij-35, 50% glycerol, 1 mM benzamidine, 0.2 mM PMSF and 0.1% R-mercaptoethanol), KKLNRTLSFAEPG (SEQ ID NO:203) and RRRLSFAEPG (SEQ ID NO:204) (50 mM HEPES pH 7.4) and GGEEEEYFELVKKKK (SEQ ID NO:205) (20 mM MOPS pH 7.0). All kinases were pre-diluted to a 10× working concentration prior to addition into the assay. The composition of the dilution buffer for each kinase is detailed below.
The following table denotes percent residual activity of each protein kinase when incubated with compound A-1 or B-1.

[1] = tested on: cellular DNA or RNA in A549 cells; experiment: Cellular target study, RNase A or DNase I treatment of compound-treated cells; type: cell-based; details: 2 uM
Method: To determine the cellular target of rRNA-interacting compounds, a study was conducted to ascertain whether the compounds could select for cellular DNA or RNA. In these studies A549 cells were plated in borosilicate chamber slides. The cells were treated with 2 uM compound A-1 the next day for one hour or two hours, washed with PBS, fixed for 10 min in 4% paraformaldehyde, permeabilized for 5 min in 1:1 ethanol:acetone mix, treated with 2.5 ug/mL of RNase A or 340 Kunitz units/mL of DNase I and observed under a fluorescence microscope (Olympus) in the Ex360 nm/Em548 nm channel at 600× magnification. […] Accordingly, a compound tested in the assay interacted with RNA preferentially over DNA in cells.

nucleolin/1196NT = biological target: T1, nucleolin/1196NT (Homo sapiens, UniProt P19338); experiment: EMSA, interference with nucleolin/nucleic acid ligand interaction; type: binding; set-up: key to Activity of Compound A-1 (relative interference), ligand 1196NT: +: least interference by compound A-1; ++++: greatest interference by compound A-1
T1 construct: without the N-terminal acidic stretches domain
T1 sequence (P19338 284-710 limits assumed): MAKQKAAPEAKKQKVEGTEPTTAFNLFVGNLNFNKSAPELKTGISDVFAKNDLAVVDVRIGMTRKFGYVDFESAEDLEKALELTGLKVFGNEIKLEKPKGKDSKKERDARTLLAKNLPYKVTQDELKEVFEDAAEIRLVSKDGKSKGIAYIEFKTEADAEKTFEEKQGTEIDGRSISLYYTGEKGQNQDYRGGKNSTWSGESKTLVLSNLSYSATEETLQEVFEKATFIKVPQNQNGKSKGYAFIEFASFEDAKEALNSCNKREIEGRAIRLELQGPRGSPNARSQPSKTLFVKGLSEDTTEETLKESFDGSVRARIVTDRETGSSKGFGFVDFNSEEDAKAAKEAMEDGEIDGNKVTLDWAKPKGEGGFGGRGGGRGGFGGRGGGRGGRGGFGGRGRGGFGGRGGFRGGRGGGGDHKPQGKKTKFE
Method: The following assays assessed effects of compounds on interactions between nucleolin and nucleic acid ligands capable of forming quadruplex (QP) and hairpin (HP) secondary structures. Nucleic acid ligands tested were a cMyc QP DNA having nucleotide sequence 5′-[…]-3′ (SEQ ID NO: 176) and a HP pre-rRNA region to which nucleolin binds, having the sequence 5′-[…]-3′ (SEQ ID NO: 177). In the assays, recombinant nucleolin (˜250 nM), which was fused to maltose binding protein and had the sequence under accession number NM_005381 without the N-terminal acidic stretches domain, was incubated with each of the two ^32P-labeled nucleic acid ligands (10 or 250 nM). Nucleolin and the nucleic acid ligand were incubated in the presence or absence of a test compound of Formula A-1, B-1, C-6 or C-7 in an incubation buffer (12.5 mM Tris, pH 7.6, 60 mM KCl, 1 mM MgCl2, 0.1 mM EDTA, 1 mM DTT, 5% glycerol, 0.1 mg/ml BSA) for 30 minutes at room temperature. Structures for A-1 and B-1 are shown above and structures for C-6 and C-7 are shown hereafter: [drawing 17] […]
The assay also was conducted in a filter-binding format. […] Radioactivity was assayed with MicroBeta scintillation counter (Perkin Elmer). Binding curves were constructed and apparent Kd's and Bmax's for the complexes were calculated using the GraphPad Prizm software program (GraphPad Software). […]

CN1CCCC1CCNC(=O)c1cn2c3c(c(N4CCC(c5cnccn5)C4)c(F)cc3c1=O)Oc1cc3ccccc3cc1-2 (stereo not drawn) [Compound A-1]
effect on rRNA synthesis (rRNA synthesis, HCT-116): inhibited rRNA synthesis at two hours and four hours
inhibition of other kinases (other kinases): 60-80%
effect of RNase treatment on nucleolar staining by the drug ([1]; 2.5 ug/mL RNase A): significantly reduced nucleolar staining
effect of DNase I treatment on compound localization ([1]; 340 Kunitz units/mL DNase I): minimal effect
Activity of Compound A-1 (relative interference), ligand 1196NT (nucleolin/1196NT): +
IC50 (nucleolin/1196NT; ligand 1196NT, read-out: IC50, concentration of Compound A-1 required to dissociate half of the complexed nucleic acid ligand and nucleolin protein): 3 µM
